Data on ten compounds can be found in article PMC10865350, “Investigating Polypharmacology through Targeting Known Human Neutrophil Elastase Inhibitors to Proteinase 3” (Journal of Chemical Information and Modeling, 2024).

Where two headings read alike, the source gives them in different places.

Assay [1] deals with human neutrophil elastase (HNE). Particulars: Bayer HealthCare AG value; cited from earlier work.
For assay [2] the test system is unchanged. Description: HNE inhibition IC50 reported by Bayer HealthCare AG (literature values). Type of assay: biochemical. The conditions noted are these: 298.15 K; calculated from Bayer HealthCare AG IC50 values, Nussbaum et al. refs 9-11. From the text:
To ensure we had the best models to represent the selected ligands and their interactions with the protein, we explored four different force field combinations for protein and ligands (Table 2) and compared the predicted values to published experimental data for HNE. […] The predicted free energies obtained with MSλD are provided in Table S3 together with the free energies derived from published experimental data.

For a further assay, the target named is T1, HNE (Homo sapiens, UniProt P08246).
T1 construct: purchased Athens Research and Technology
T1 sequence (P08246 30-267): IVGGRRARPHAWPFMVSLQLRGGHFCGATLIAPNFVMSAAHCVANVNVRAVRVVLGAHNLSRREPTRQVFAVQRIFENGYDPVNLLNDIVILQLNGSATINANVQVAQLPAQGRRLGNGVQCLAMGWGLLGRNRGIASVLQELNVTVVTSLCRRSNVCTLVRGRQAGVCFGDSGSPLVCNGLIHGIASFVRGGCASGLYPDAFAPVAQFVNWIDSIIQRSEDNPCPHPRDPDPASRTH
Briefly: Enzymatic activity assay, HNE (fluorogenic substrate MeOSuc-AAPV-AMC). Type of assay: biochemical. Particulars: best enantiomer for compounds 5-8. The method, then: (§1) II.1 Experimental details
(§2) Chemicals. All chemicals and reagents were of analytical grade. Enzymes, PR3 and HNE, were purchased from Athens Research and Technology.
(§3) India) using published procedures.42 The substrate of HNE (MeOSuc-AAPV-AMC) was supplied by Santa Cruz Biotechnology.
(§4) Activity assay. The enzymatic assays for both PR3 and HNE were conducted according to the method published in (Budnjo et al., 2014) with minor modifications. Briefly, 0.5 nM of enzyme […]
(§5) same buffer containing the inhibitors at various concentrations for 30 min at RT. For PR3, the […]
(§6) 320, emission filter 420) at a final concentration of 5 μM while the HNE reaction was started by […]
(§7) at a final concentration of 5 μM. The fluorescent signal was read every 30 second for 30 min at 30 °C using a fluorescent plate reader (Tecan Spark). The enzymatic activity was measured from the initial linear portion of the slope (fluorescent signal/min) of the time-course curve of reaction progress. The activity data were produced in triplicates. Data were fitted using nonlinear regression analysis (GraphPad Prism v.9) to determine the IC50 values.

Assay [3] deals with T2, Proteinase 3 (PR3) (Homo sapiens, UniProt P24158).
T2 construct: purchased Athens Research and Technology
T2 sequence (P24158 28-256): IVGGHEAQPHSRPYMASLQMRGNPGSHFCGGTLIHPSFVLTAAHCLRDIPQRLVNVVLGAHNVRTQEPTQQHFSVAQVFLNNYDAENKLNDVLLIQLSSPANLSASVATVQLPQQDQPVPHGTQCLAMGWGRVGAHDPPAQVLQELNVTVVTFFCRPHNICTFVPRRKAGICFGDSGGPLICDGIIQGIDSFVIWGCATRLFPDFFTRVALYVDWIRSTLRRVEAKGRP
Briefly: Enzymatic activity assay, PR3 (FRET peptide Abz-VADnVADYQ-EDDnp). The conditions noted are these: best enantiomer for compounds 5-8. It counts as biochemical. The method, then: as §1, §2, §3, §4, §5, §6, §7

Assay [4] concerns the target Proteinase 3 (PR3). Described as above. It counts as biochemical, human. The conditions noted are these: selectivity: PR3 IC50 with respect to HNE IC50. As to the method: as §1, §2, §3, §4, §5, §6, §7
[5] abbreviates: 0.5 nM enzyme, 5 μM substrate, triplicates, read-out: IC50 HNE.
[6] abbreviates: read-out: pIC50 HNE (converted).
Setting [7] is: 0.5 nM enzyme, 5 μM FRET peptide, triplicates, read-out: IC50 PR3.

For `CC1=C(C#N)[C@@H](c2ccc(C#N)cc2)n2ncnc2N1c1cccc(C(F)(F)F)c1` [Compound 2], in assay [1], the IC50 was 15 nM. Also, the “ΔGexpt HNE (ΔG = RTln(IC50))” value in assay [2] is on record as -10.6 kcal/mol.

In the case of `CC1=C(C#N)[C@@H](c2ccc(C#N)cc2)n2nc(N)nc2N1c1cccc(C(F)(F)F)c1` [Compound 3], in assay [1], the IC50 was 2.5 nM. Besides, the “ΔGexpt HNE (ΔG = RTln(IC50))” value in assay [2] is on record as -11.7 kcal/mol.

`COc1nc2n(n1)[C@H](c1ccc(C#N)cc1)C(C#N)=C(C)N2c1cccc(C(F)(F)F)c1` [Compound 4]: the IC50 in assay [1] was 69 nM. Also, the “ΔGexpt HNE (ΔG = RTln(IC50))” value in assay [2] is on record as -9.7 kcal/mol.

For `CNc1nc2n(n1)[C@H](c1ccc(C#N)cc1)C(C#N)=C(C)N2c1cccc(C(F)(F)F)c1` [Compound 5], the IC50 was 0.59 nM in assay [1], 1.3 ± 0.2 nM at HNE (setting [5]), 1.26 nM on HNE (setting [6]) and 190 ± 10 nM on Proteinase 3 (PR3) [3] (setting [7]). Moreover, in assay [2], the “ΔGexpt HNE (ΔG = RTln(IC50))” value is -12.5 kcal/mol. Besides, at Proteinase 3 (PR3) [4], the “IC50 ratio (PR3/HNE)” value is recorded as 146.

On to `CC1=C(C#N)[C@@H](c2ccc(C#N)cc2)n2nc(NC(=O)C3CC3)nc2N1c1cccc(C(F)(F)F)c1` [Compound 6], for which the IC50 in assay [1] was 0.35 nM; at HNE (setting [5]), 0.6 nM; on HNE (setting [6]), 0.794 nM; on Proteinase 3 (PR3) [3] (setting [7]) it was 7.7 ± 0.6 nM. Also, the “ΔGexpt HNE (ΔG = RTln(IC50))” value in assay [2] is -12.8 kcal/mol. Further, the “IC50 ratio (PR3/HNE)” value at Proteinase 3 (PR3) [4] turned out to be 13.

`COC(=O)Nc1nc2n(n1)[C@H](c1ccc(C#N)cc1)C(C#N)=C(C)N2c1cccc(C(F)(F)F)c1` [Compound 7]: the IC50 is 0.17 nM in assay [1], 1.1 ± 0.1 nM at HNE (setting [5]), 1.26 nM at HNE (setting [6]) and 20 nM at Proteinase 3 (PR3) [3] (read-out: pIC50 PR3 (converted)). Further, the “ΔGexpt HNE (ΔG = RTln(IC50))” value in assay [2] was -13.3 kcal/mol. The “IC50 ratio (PR3/HNE)” value on Proteinase 3 (PR3) [4] stood at 19.

For the compound `CNC(=O)Nc1nc2n(n1)[C@H](c1ccc(C#N)cc1)C(C#N)=C(C)N2c1cccc(C(F)(F)F)c1` [Compound 8], the IC50 in assay [1] was 0.3 nM; on HNE (setting [5]) it was 0.8 ± 0.1 nM; at HNE (setting [6]), 0.794 nM; on Proteinase 3 (PR3) [3] (setting [7]) it was 58.9 ± 6 nM. For the same compound, the “ΔGexpt HNE (ΔG = RTln(IC50))” value in assay [2] is -12.9 kcal/mol. In addition, the “IC50 ratio (PR3/HNE)” value on Proteinase 3 (PR3) [4] is 74.

Take `CC1=C(C#N)[C@@H](c2ccc(C#N)cc2)n2nc(NS(C)(=O)=O)nc2N1c1cccc(C(F)(F)F)c1` [Compound 9]: in assay [1], the IC50 was 12 nM. Further, the “ΔGexpt HNE (ΔG = RTln(IC50))” value in assay [2] is -10.8 kcal/mol.

For the compound `CNS(=O)(=O)Nc1nc2n(n1)[C@H](c1ccc(C#N)cc1)C(C#N)=C(C)N2c1cccc(C(F)(F)F)c1` [Compound 10], in assay [1], the IC50 was 50 nM. Moreover, the “ΔGexpt HNE (ΔG = RTln(IC50))” value in assay [2] is given as -9.9 kcal/mol.

`CC1=C(C#N)[C@@H](c2ccc(C#N)cc2)n2nc(NC(=O)C3CCCCC3)nc2N1c1cccc(C(F)(F)F)c1` [Compound 11]: in assay [1], the IC50 was less than 0.3 nM.
